Test results reported in patent US11014956B2, “Compositions and methods for altering second messenger signaling” (Memorial Sloan Kettering Cancer Center, priority 2013, dated 2021).
Entries after “also recorded” stand apart in the source; their conditions may differ.

Tests used:
cGAS [1] = target: T1, cGAS (Mus musculus, UniProt Q8C6L5); assay: cGAS activity assay, c[G(2′,5′)pA(3′,5′)p] formation by thin-layer chromatography; assay type: biochemical; settings: for cyclic dinucleotide formation with the nucleotide as cGAS substrate in place of GTP or ATP (in words): cGAS plus dsDNA
T1 construct: Purified recombinant full length (fl, amino acids 1-507) and truncated (tr, amino acids 147-507) murine cGAS; His6-SUMO (N, cleaved yes); made in house; host or cells: E. coli BL21 (DE3) RIL
T1 sequence (Q8C6L5 whole entry, the tested form may be a part): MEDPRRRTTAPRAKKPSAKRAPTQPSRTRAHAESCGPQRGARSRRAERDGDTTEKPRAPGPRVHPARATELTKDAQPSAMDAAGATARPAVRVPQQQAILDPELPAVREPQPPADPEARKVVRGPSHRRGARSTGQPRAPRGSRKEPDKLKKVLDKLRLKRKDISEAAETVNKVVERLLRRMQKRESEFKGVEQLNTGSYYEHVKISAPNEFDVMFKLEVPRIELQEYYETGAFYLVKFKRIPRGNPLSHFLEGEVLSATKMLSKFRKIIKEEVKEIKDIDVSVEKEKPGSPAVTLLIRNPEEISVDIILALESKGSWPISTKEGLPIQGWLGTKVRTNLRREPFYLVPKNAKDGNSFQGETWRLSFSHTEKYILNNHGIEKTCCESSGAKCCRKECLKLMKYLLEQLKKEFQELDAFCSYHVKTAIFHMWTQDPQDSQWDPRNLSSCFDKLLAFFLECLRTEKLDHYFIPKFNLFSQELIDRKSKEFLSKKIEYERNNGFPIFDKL
Description: (§1) To validate the structural results, we established an activity assay using thin-layer chromatography (FIG. 11) and monitored cyclic dinucleotide c[G(2′,5′)pA(3′,5′)p] formation from ATP and GTP using purified recombinant full-length and truncated cGAS proteins. cGAS required the presence of dsDNA and Mg^2+ or Mn^2+ for activity (FIG. 5A-B). […] The trace amount of c[G(2′,5′)pA(3′,5′)p]detected for the specific ssDNA used in this experiment was attributable to a stretch of sequence complementarity, and the substitution of G by 8-oxoguanine (8-oxoG) was sufficient to destabilize its predicted interaction and eliminate the residual cGAS activity.
(§2) Purified recombinant full length (fl, amino acids 1-507) and truncated (tr, amino acids 147-507) murine cGAS, including truncated mutant versions 1-6, were incubated in 20 μL reactions containing: 1 μM cGAS, 3.3 μM dsDNA, 5 mM MgCl2, 150 mM NaCl, 20 mM Tris-HCl, pH 7.5 at 25° C., 1 mM DTT, 10% glycerol, 1 mM each of nucleotides (typically ATP and GTP), and α^32P or γ^32P radiolabelled NTPs or dNTPs at 37° C. for 40 min. Reactions were stopped by addition of 20 μL of 50 mM EDTA. 2 μL of reaction solution was spotted onto high-performance TLC plates (HPTLC silica gel, 60 Å pores, F254, 10×10 cm, cat #1.05628.0001, EMD Millipore) and products were separated with Solvent 1 (NH4HCO3:C2H5OH:H2O [0.2 M:30%:70%], w:v:v) or 2 (NH4HCO3:C2H5OH:H2O [0.025 M:30%:70%], w:v:v) at 25° C. for 1 h. Reaction products were visualized by UV (254 nm) and phosphorimaging (Typhoon FLA 9500, GE Healthcare). Images were processed using Adobe Photoshop and Illustrator CS5. The TLC conditions used were largely based on a protocol established to separate 3′,5′ cAMP (Higashida et al, 2012).
(§3) The yield of c[G(2′,5′)pA(3′,5′)p] generated was calculated by densitometry analysis of TLC experiments, using FIJI (ImageJ 1.47i) or spectrophotemetrically (absorbance at 260 nm, E260=25.4×10^3) after purification from HPLC. For densitometry analyses, the fraction of α^32P-labelled c[G(2′,5′)pA(3′,5′)p] over total radioactivity per lane (c[G(2′,5′)pA(3′,5′)p]plus remaining α^32P-labelled ATP or GTP) was calculated.

[2] = tested on: IFN-β luciferase reporter; assay: IFN-β luciferase reporter assay in HEK 293 cells co-expressing cGAS and STING; assay type: cell-based; settings: for cGAS function in cells (in words): alanine mutants of full-length cGAS expressed in HEK 293 cells
Description: To assess the impact on cGAS function in cells, we generated additional alanine mutants of cGAS for expression in mammalian cells. The full-length cGAS mutants together with STING and an IFN-β luciferase reporter were transiently expressed in HEK 293 cells. […] (Arg364, Tyr 421; FIG. 2F, 4B), while single mutants of these residues only slightly impaired cGAS function (FIG. 7C). […] Similarly, conversion of the highly mobile Gly198 to sterically restricted proline abrogated cGAS activity (FIG. 13E).
3×10^4 HEK293 cells per 96-well were reverse-transfected in triplicates with a mixture of pGL3-IFNbeta-Gluc (50 ng), pLenti-EF1-Fluc (25 ng), pLenti-EF1-mSTING (25 ng) and cGAS-expression plasmid (25 ng, pMAX-cGAS WT or mutants) or Control plasmid pMAX-GFP (Amaxa) using Trans-IT LT1 (MirusBio, Madison, Wis.). After 36 h cells were lysed in passive lysis buffer. Firefly and gaussia Luciferase activities were determined on an EnVision reader (Perkin Elmer, Waltham, Mass.) using the respective substrates D-luciferin and coelenterazine (PJK GmbH, Kleinblittersdorf, Germany). IFNbeta-Gluc values were normalized to constitutive firefly luciferase values and fold induction was calculated in relation to control-plasmid pMAX-GFP.

cGAS [3] = assay: cGAS activity assay, c[G(2′,5′)pA(3′,5′)p] formation by thin-layer chromatography; assay type: biochemical, mouse; settings: for c[G(2′,5′)pA(3′,5′)p] formation by cGAS protein in vitro (in words): purified recombinant cGAS incubated with DNA
Description: as §1, §2, §3

| Molecule | cGAS function in cells (in words) [2] | c[G(2′,5′)pA(3′,5′)p] formation by cGAS protein in vitro (in words) (cGAS [3]) | other results |
| --- | --- | --- | --- |
| Nc1ncnc2c1ncn2[C@H]1C[C@H](O)[C@@H](COP(=O)(O)OP(=O)(O)OP(=O)(O)O)O1 [2′-dATP, reference compound] |  |  | cyclic dinucleotide formation with the nucleotide as cGAS substrate in place of GTP or ATP (in words) (cGAS [1]): forms; also recorded: markedly reduced formation of cyclic GA-dinucleotides |
| 16 bp dsDNA: 16 bp dsDNA used for crystallography (SEQ ID NO: 47 and 48) (chain 1 AAATTGCCGAAGACGAA; chain 2 TTTCGTCTTCGGCAATT; DNA, backbone not given here) [reference compound] |  |  | stimulation of cGAS cyclic dinucleotide formation by the nucleic acid (in words) (cGAS [1]; ATP and GTP as substrates): elicited some activity |
| Arg161: cGAS single alanine mutant of DNA binding residue Arg161 | not sufficient to impair cGAS activity |  |  |
| Asp307: cGAS single mutant, catalytic residue Asp307 replaced by Ala | non-functional; also recorded: functionally dead |  |  |
| Nc1ncnc2c1ncn2[C@@H]1O[C@H](COP(=O)(O)OP(=O)(O)OP(=O)(O)O)C[C@H]1O [3′-dATP, reference compound] |  |  | cyclic dinucleotide formation with the nucleotide as cGAS substrate in place of GTP or ATP (in words) (cGAS [1]): markedly reduced formation of cyclic GA-dinucleotides |
| Nc1nc2c(ncn2[C@H]2C[C@H](O)[C@@H](COP(=O)(O)OP(=O)(O)OP(=O)(O)O)O2)c(=O)[nH]1 [2′-dGTP, reference compound] |  |  | cyclic dinucleotide formation with the nucleotide as cGAS substrate in place of GTP or ATP (in words) (cGAS [1]): not at all; also recorded: unable to form a cyclic dinucleotide |
| Y421A, R364A: cGAS dual mutant of the base stacking residues Arg364 and Tyr421 | loss in the majority of activity |  | cGAS function in cells (in words) ([2]; Tyr 421): abrogation of cGAS activity |
| G198A: cGAS single mutant G198A | did not severely impair cGAS function |  |  |
| cGAS: mouse cyclic GMP-AMP synthase, wild type, full length (amino acids 1-507), recombinant or expressed in cells |  |  | enhanced luciferase activity compared to a control plasmid ([2]; HEK 293 cells, STING and IFN-β luciferase reporter transiently expressed): ~15 fold; estimated observed rate constant (cGAS [3]; multiple turnover conditions): 0.19 min⁻¹; turnovers per enzyme molecule (cGAS [3]; multiple turnover conditions, 40 min): over 750; original ATP and GTP converted to c[G(2′,5′)pA(3′,5′)p] (cGAS [3]; multiple turnover conditions, within 40 min, n=5): Over 78% |
| Asp213: cGAS single mutant, catalytic residue Asp213 replaced by Ala | non-functional; also recorded: functionally dead |  |  |
| Glu211: cGAS single mutant, catalytic residue Glu211 replaced by Ala | non-functional; also recorded: functionally dead | functionally dead |  |
| cGAS (tr): truncated murine cGAS, amino acids 147-507 |  | exhibits activity, albeit less than cGAS (fl) |  |
| S199A: cGAS single mutant S199A | did not severely impair cGAS function | retained substantial activity |  |
| Nc1nc2c(ncn2[C@@H]2O[C@H](COP(=O)(O)OP(=O)(O)O)[C@@H](O)[C@H]2O)c(=O)[nH]1 [GDP, reference compound] |  |  | cyclic dinucleotide formation with the nucleotide as cGAS substrate in place of GTP or ATP (in words) (cGAS [1]): reduced amount of the cylic-dinucleotide |
| Nc1ncnc2c1ncn2[C@@H]1O[C@H](COP(=O)(O)OP(=O)(O)O)[C@@H](O)[C@H]1O [ADP, reference compound] |  |  | cyclic dinucleotide formation with the nucleotide as cGAS substrate in place of GTP or ATP (in words) (cGAS [1]): reduced levels of c[G(2′,5′)pA(3′,5′)p] |
| S165A, N172A, K372A triple mutant: cGAS dsDNA-binding triple mutant (protein) PDKLKKVLDKLRLKRKDIAEAAETVAKVVERLLRRMQKRESEFKGVEQLNTGSYYEHVKISAPNEFDVMFKLEVPRIELQEYYETGAFYLVKFKRIPRGNPLSHFLEGEVLSATKMLSKFRKIIKEEVKEIKDIDVSVEKEKPGSPAVTLLIRNPEEISVDIILALESKGSWPISTKEGLPIQGWLGTKVRTNLRREPFYLVPKNAKDGNSFQGETWRLSFSHTEAYILNNHGIEKTCCESSGAKCCRKECLKLMKYLLEQLKKEFQELDAFCSYHVKTAIFHMWTQDPQDSQWDPRNLSSCFDKLLAFFLECLRTEKLDHYFIPKFNLFSQELIDRKSKEFLSKKIEYERNNGFPIFDKL | complete loss in activity and ability to stimulate interferon production | complete loss in activity |  |
| R158A, R161A, K395A triple mutant: cGAS dsDNA-binding triple mutant (protein) PDKLKKVLDKLALKAKDISEAAETVNKVVERLLRRMQKRESEFKGVEQLNTGSYYEHVKISAPNEFDVMFKLEVPRIELQEYYETGAFYLVKFKRIPRGNPLSHFLEGEVLSATKMLSKFRKIIKEEVKEIKDIDVSVEKEKPGSPAVTLLIRNPEEISVDIILALESKGSWPISTKEGLPIQGWLGTKVRTNLRREPFYLVPKNAKDGNSFQGETWRLSFSHTEKYILNNHGIEKTCCESSGAKCCRAECLKLMKYLLEQLKKEFQELDAFCSYHVKTAIFHMWTQDPQDSQWDPRNLSSCFDKLLAFFLECLRTEKLDHYFIPKFNLFSQELIDRKSKEFLSKKIEYERNNGFPIFDKL | complete loss in activity and ability to stimulate interferon production | complete loss in activity |  |
| N196A, Y200A, K372A triple mutant: cGAS dsDNA-binding triple mutant (protein) PDKLKKVLDKLRLKRKDISEAAETVNKVVERLLRRMQKRESEFKGVEQLATGSAYEHVKISAPNEFDVMFKLEVPRIELQEYYETGAFYLVKFKRIPRGNPLSHFLEGEVLSATKMLSKFRKIIKEEVKEIKDIDVSVEKEKPGSPAVTLLIRNPEEISVDIILALESKGSWPISTKEGLPIQGWLGTKVRTNLRREPFYLVPKNAKDGNSFQGETWRLSFSHTEAYILNNHGIEKTCCESSGAKCCRKECLKLMKYLLEQLKKEFQELDAFCSYHVKTAIFHMWTQDPQDSQWDPRNLSSCFDKLLAFFLECLRTEKLDHYFIPKFNLFSQELIDRKSKEFLSKKIEYERNNGFPIFDKL | complete loss in activity and ability to stimulate interferon production | complete loss in activity |  |
| S165A, N172A, Y200A triple mutant: cGAS dsDNA-binding triple mutant (protein) PDKLKKVLDKLRLKRKDIAEAAETVAKVVERLLRRMQKRESEFKGVEQLNTGSAYEHVKISAPNEFDVMFKLEVPRIELQEYYETGAFYLVKFKRIPRGNPLSHFLEGEVLSATKMLSKFRKIIKEEVKEIKDIDVSVEKEKPGSPAVTLLIRNPEEISVDIILALESKGSWPISTKEGLPIQGWLGTKVRTNLRREPFYLVPKNAKDGNSFQGETWRLSFSHTEKYILNNHGIEKTCCESSGAKCCRKECLKLMKYLLEQLKKEFQELDAFCSYHVKTAIFHMWTQDPQDSQWDPRNLSSCFDKLLAFFLECLRTEKLDHYFIPKFNLFSQELIDRKSKEFLSKKIEYERNNGFPIFDKL | partial loss in activity | partial loss in activity |  |
